According to patent US5747461A, “Synergistic administration of cyclosporine and fructose diphosphate” (priority 1994, dated 1998):

Key:
ex vivo stored hearts = experiment: Ex vivo cold ischemic storage and reperfusion of hearts (Langendorf apparatus); set-up: species or system rat
Experimental: Hearts were harvested from ketamine-anesthetized Sprague Dawley rats (350-450 gm body weight). Prior to harvesting the hearts, 17 randomly chosen rats received an intravenous bolus injection of FDP 450 mg/kg (10%). The hearts were removed, the left atria and aorta were attached to a modified Langendorf apparatus within 3 min, and the hearts were perfused ex vivo for 15 min at 37° C. with Krebs-Henseleit solution to which 0.07 mg/ml of FDP had been added. Rats in the control group (n=21) received an equivalent volume saline injection prior to surgery, and the hearts were perfused for 15 min with Krebs-Henseleit solution containing no FDP. Heart rates, systolic and diastolic pressures, cardiac outputs, and coronary blood flow during this period were measured and recorded.
After the 15 minute perfusion period, the control hearts (n=21) were flushed with cardioplegic solution (Isolyte, K^+ 20 mEq/L). The FDP=treated hearts (n=17) were flushed with the same solution containing 1 mg/cc of FDP. The hearts were respectively placed in cold (4° C.) saline solution, with 0.9% NaCl or 0.9% NaCl containing 1 mg/ml FDP, and stored at 4° C. for 4 hours. After the 4 hour storage period was completed, the hearts were reperfused and warmed to 37° C. again. Seven hearts from each group were taken out of the Langendorf apparatus after 15 minutes and analyzed for myocardial ATP content. The remaining hearts (10 in the treatment group, and 14 in the control group) were measured in various ways (heartbeat rates, mean aortic and systolic pressures, and cardiac output) for 2 hours following the commencement of reperfusion.

[1] = test system: ischemically stored livers; experiment: Oxygen consumption after hypothermic ischemic storage, liver; set-up: species or system rat; settings: livers n=12; FDP 1 mg/ml in storage solution; storage 17.62±0.22 hours at 4° C.; measured at 36.4° C.
Experimental: (§1) Sprague Dawley rats (150-180 gm/body weight) were anesthetized with Ketamine 35 mg/kg. The liver, kidney and heart were excised and placed in 50 ml of a standard cardioplegia solution sold under the trademark ISOLYTE (which contained Na^+ -41 mEq/L, K^+ -16 mEq/L, Ca^++ -5 mEq/L, Mg^++ 3 mEq/L, Cl^- -40 mEq/L, acetate 24 mEq/L with 5% Dextrose), precooled to 4° C. To half of the storage containers, 1 mg/ml of 10% FDP was added; to the rest of the containers, a similar amount of glucose was added. The containers were placed on ice in a refrigerator. After storage for 16 to 20 hours, the organs were weighed and placed in a metabolic chamber for determination of oxygen consumption,using a Clark polarographic electrode. The total volume of the chamber was 10 ml and the composition of the medium was 8 ml phosphate buffered saline (PBS Dulbecco, Mg^++ and Ca^++ free) and 2 cc of Dextrose at a temperature of 36°±0.2° C. The organ was placed in the chamber and 100% oxygen was bubbled for 45 sec. The partial pressure of the dissolved oxygen was usually 480-560 mm Hg. Then the chamber was sealed hermetically, and O2 consumption by the organ was recorded on a strip chart recorder at a speed of 1 cm/min. Initial and final PO2 levels of medium in the chamber were measured on a Radiometer Blood Gas Analyzer Model ABL-4.

[2] = test system: ischemically stored hearts; experiment: Oxygen consumption after hypothermic ischemic storage, heart; set-up: species or system rat; settings: hearts n=4; FDP 1 mg/ml in storage solution; 16 to 20 hours storage
Experimental: as §1

[3] = test system: Concanavalin A-stimulated T-lymphocytes; experiment: Thymidine incorporation by Concanavalin A-stimulated T-lymphocytes; format: cell-based, rat; settings: ConA-stimulated
Experimental: The in vitro tests, and their results, are described in detail in Example 1. Briefly, T lymphocytes were obtained from rat spleens. The cells were then stimulated by Concanavalin A (ConA), a mitogen that specifically stimulates T lymphocyte replication, both in control samples and in samples that were also contacted with either FDP or cyclosporine at various concentrations. Cell replication was measured by assaying the uptake of thymidine which had been radiolabelled using tritium, a heavy isotope of hydrogen. Cell viability was measured using a dye, trypan blue; intact and viable cells can exclude trypan blue from their interiors, while damaged or dead cells cannot.
Sprague-Dawley rats (150-200 gm body weight) were euthanized by overdose of ketamine (injected intramuscularly, IM). Their spleens were removed under sterile conditions and placed in a plastic petri dish with Buffered Hanks Solution (BHS). The splenic parenchyma was torn apart with sterile needles and forceps. The solution with the splenic fragments was homogenized with a Teflon pestle in a glass tube. This allowed the cells to be expressed into the solution which was then filtered and placed over Ficoll-Hypaque and centrifuged at 1500 RPM for 20 minutes in order to separate mononuclear cells. The middle layer of cells (containing lymphocytes) was removed and centrifuged at 1000 RPM for 10 min. After removing the supernates, the remaining red blood cells were lysed with 0.83% NH4 Cl solution, and the cells were again centrifuged at 1000 RPM for 2-3 min. The supernate was poured off and the cells were washed twice with BHS and then resuspended in tissue culture media (RPMI-1640 with 10% fetal calf serum). The cells then were adjusted to final concentration of 5×10^6 cells/ml with RPMI-1640 and 10% fetal calf serum.
A tissue culture multi-well plate was used for incubation. All well filling was done under sterile conditions. […] The well volume capacity was 0.35 ml.
Six different dilutions (freshly prepared in sterile water solution from 10% FDP stock solutions) were used--1:10, 1:100, 1:250, 1:500, 1:1000 and 1:10000. […] A few wells were used to measure the stimulation index, and received ConA or RPMI without FDP or Cyclosporine. All combinations were run in triplicate. The wells were labeled and incubated with CO2 at 35° C. for 48 hours.
Each well then received 0.05 ml of tritiated (^3 H) thymidine (1 μCi/0.05 ml). Radiolabelled thymidine is taken up by proliferating lymphocytes, allowing them to be counted using a liquid scintillation counter. After 16 to 20 hours of incubation the samples were harvested onto glass filter paper strips using a multiple automated sample harvester. The paper was allowed to dry 4-5 hours. Paper from each well was placed in scintillation counting vials with 5 ml fluorane (scintillene). […] Significance was assessed by unpaired t-test.

O=C(COP(=O)(O)O)[C@@H](O)[C@H](O)[C@H](O)COP(=O)(O)O [FDP, fructose-1,6-diphosphate]
myocardial ATP content vs control group (ex vivo stored hearts; after 15 min of reperfusion, FIG. 5, p<0.01): higher
hearts still showing a heartbeat (ex vivo stored hearts; after 1 hour and 30 min of reperfusion following 4 h storage at 4° C., n=10, controls 5 of 14): all
post-storage heartbeat rate vs control group (ex vivo stored hearts; after 4 h cold storage, FIG. 1): significantly higher
peak systolic aortic pressures vs control group (ex vivo stored hearts; after 4 h cold storage, FIG. 2): significantly higher
mean pressures vs control group (ex vivo stored hearts; after 4 h cold storage, FIG. 3): significantly higher
cardiac output rates vs control group (ex vivo stored hearts; after 4 h cold storage, FIG. 4): significantly higher
oxygen consumption after ischemic storage [1]: 76.7±4.4 O2 mmHg/min/gm
post-storage O2 consumption [2]: 68.4±3.14 mmHg O2 /min/gm
Thymidine incorporation ([3]; FDP 1:10 dilution of 10% stock): 136 counts per 2 minute period
Thymidine incorporation ([3]; FDP 1:100 dilution of 10% stock): 1175 counts per 2 minute period
Thymidine incorporation ([3]; FDP 1:250 dilution of 10% stock): 24818 counts per 2 minute period
Thymidine incorporation ([3]; FDP 1:500 dilution of 10% stock): 52481 counts per 2 minute period
Thymidine incorporation ([3]; FDP 1:1000 dilution of 10% stock): 62518 counts per 2 minute period
Thymidine incorporation ([3]; FDP 1:10000 dilution of 10% stock, mean of 13 experiments): 89032 counts per 2 minute period
